Consider one compound from patent publication US20070117851A1, “Liquid pharmaceutical compositions of nimodipine” (TRANSFORM PHARMACEUTICALS, INC., priority 2005, published 2007).

Converted amounts (≈) assume the structure as drawn.

A short description of data set [1]: Nimodipine equilibrium solubility in alcohol/solvent/water mixtures. The class given is physicochemical. The settings on record: 10% ethanol. How it is done: The effect of several alcohol and solvent concentrations on nimodipine solubility in water was studied. Nimodipine equilibrium solubility was tested at room temperature with the following solutions: • 1. Various % (v/v) of ethanol in 10 mM pH 6.8 citrate buffer • 2. Various % (w/w) of Cremophor® EL in 10 mM pH 6.8 citrate buffer • 3. Various % (v/v) of ethanol with 30% (w/w) Cremophor® EL in 10 mM pH 6.8 citrate buffer • 4. Various % (w/w) of propylene glycol (PG) in the solution of 30% Cremophor™ EL and 10% ethanol in citrate buffer at pH 6.8 • 5. Various % (w/w) of propylene glycol (PG) in the solution of 20% Cremophor® EL and 10% ethanol in citrate buffer at pH 6.8 • 6. Various % (w/w) of PEG 400 in the solution of 20% Cremophor® EL and 10% ethanol in citrate buffer at pH 6.8 • 7. Various % (w/w) of PEG400 in the solution of 30% Cremophor® EL and 10% ethanol in citrate buffer at pH 6.8 • 8. Various % (w/w) of mixture of PG/PEG400 at 1:1 (w/w) in the solution of 30% Cremophor® EL and 10% ethanol in citrate buffer at pH6.8 The above solutions were prepared by weight except solution 1 which the percent ethanol was mixed with citrate buffer by volume. […] Concentration of each sample was determined by HPLC based on a standard curve and the dilution factor of each samples solution. […]

Data set [2] is described as follows: Chemical stability of nimodipine in the Table 2 composition via HPLC. The class given is physicochemical. Here is the method: The chemical stability of nimodipine was measured at 40 and 60 degrees C. via HPLC in a composition described in Table 2.
FIGS. 1 and 2 show the chemical stability of nimodipine in the composition described in Table 2 at 40 and 60 degrees C., respectively. These Figures show data acquired with compositions having a pH of 5, 6, and 7, over a period of four weeks. […] Subsequent data has also been acquired over a period of 8 weeks.

Consider `COCCOC(=O)C1=C(C)NC(C)=C(C(=O)OC(C)C)C1c1cccc([N+](=O)[O-])c1` (centres unmarked) [nimodipine, 1,4-dihydro-2,6-dimethyl-4-(3-nitrophenyl)-3,5-pyridinedicarboxylic acid 2-methoxyethyl 1-methylethyl ester], for which the “nimodipine solubility compared with the composition comprising 30% ethanol and 30% Cremophor EL” value in data set [1] (30% PEG 400, FIG. 7) is “comparable”. For the same compound, the solubility at 24 h in data set [1] (aqueous with cosolvent or surfactant or cyclodextrin, thermodynamic from solid, 30% Cremophor EL, 30% PEG 400 in citrate buffer pH 6.8, room temperature, 24 hours) was roughly 14 mg/mL (≈ 33.5 mM). Further, the nimodipine stability entry was “greater than 99%” in data set [2] (Table 2 composition (3.0 mg/mL), 40 degrees C, pH 5, 6 and 7, four weeks, HPLC); “greater than 99%” in data set [2] (Table 2 composition (3.0 mg/mL), 60 degrees C, pH 5, 6 and 7, four weeks, HPLC); “greater than 99%” in data set [2] (Table 2 composition, 60 degrees C, pH=7, 8 weeks).
